Test results: patent US8232269B2, “Amide compounds useful in therapy” (Pfizer Inc., priority 2008, dated 2012)

test system: ovarian cancer patients; experiment: not given; settings: RU486 200 mg/day; ovarian cancer patients refractory to cisplatin and paclitaxel; cited from earlier work

Compound | patients with a clinical response
CC#C[C@]1(O)CC[C@H]2[C@@H]3CCC4=CC(=O)CCC4=C3[C@@H](c3ccc(N(C)C)cc3)C[C@@]21C [RU486, mifepristone] | 26.5%

test system: Brca1/p53-deficient mice; experiment: not given; settings: treatment of Brca1/p53-deficient mice; cited from earlier work

Compound | effect on mammary tumorigenesis
CC#C[C@]1(O)CC[C@H]2[C@@H]3CCC4=CC(=O)CCC4=C3[C@@H](c3ccc(N(C)C)cc3)C[C@@]21C [RU486, mifepristone] | prevented mammary tumorigenesis

target: T1, Progesterone Receptor (PR) (Homo sapiens, UniProt P06401); experiment: In vitro functional assay for progesterone receptor (PR) antagonists: inhibition of progesterone-induced alkaline phosphatase expression in T47D cells; format: cell-based; settings: antagonist format, 5 nM progesterone, Ki calculated from IC50 with the Cheng-Prusoff equation
T1 construct: endogenous in cells; host or cells: T47D human breast mammary carcinoma cells
T1 sequence (P06401 1-933): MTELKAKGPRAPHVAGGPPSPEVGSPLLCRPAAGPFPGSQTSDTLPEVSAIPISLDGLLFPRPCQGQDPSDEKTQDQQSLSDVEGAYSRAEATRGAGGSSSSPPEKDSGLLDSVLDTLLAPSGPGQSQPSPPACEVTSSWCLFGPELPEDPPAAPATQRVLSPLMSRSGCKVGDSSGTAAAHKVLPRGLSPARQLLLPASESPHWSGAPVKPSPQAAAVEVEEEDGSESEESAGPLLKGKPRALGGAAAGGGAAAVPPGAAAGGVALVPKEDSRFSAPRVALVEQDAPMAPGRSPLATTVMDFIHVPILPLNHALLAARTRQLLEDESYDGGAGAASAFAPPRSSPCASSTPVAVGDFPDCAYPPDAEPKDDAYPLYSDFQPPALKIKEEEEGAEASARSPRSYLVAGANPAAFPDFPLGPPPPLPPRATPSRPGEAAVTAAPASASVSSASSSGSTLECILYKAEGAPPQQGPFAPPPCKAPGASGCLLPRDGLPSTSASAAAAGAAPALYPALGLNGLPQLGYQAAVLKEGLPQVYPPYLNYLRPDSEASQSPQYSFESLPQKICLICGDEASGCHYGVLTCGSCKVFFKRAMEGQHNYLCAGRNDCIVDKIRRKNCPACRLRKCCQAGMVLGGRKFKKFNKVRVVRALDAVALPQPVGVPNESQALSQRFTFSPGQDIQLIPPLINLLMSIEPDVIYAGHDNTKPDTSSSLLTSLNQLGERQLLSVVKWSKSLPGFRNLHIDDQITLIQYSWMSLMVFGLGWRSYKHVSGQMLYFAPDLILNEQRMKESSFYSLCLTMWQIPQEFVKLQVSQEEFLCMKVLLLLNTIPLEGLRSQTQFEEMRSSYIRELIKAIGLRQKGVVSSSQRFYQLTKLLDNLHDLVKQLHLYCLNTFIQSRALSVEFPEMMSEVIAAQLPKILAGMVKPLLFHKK
Outline: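 Antagonist format: T47D cells (8750/well, phenol red-free DMEM + 5% CS-FCS) given half-log compound dilutions plus 5 nM progesterone (final), incubated overnight (≥16 h) at 37 °C. Alkaline phosphatase read by CSPD chemiluminescence after freeze-thaw lysis; 0.1 μM RU-486 final defines minimum.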

Compound | Ki
Cc1c(-c2ccc(C#N)cc2)nn(C2CC2)c1C(=O)NC(C)C [Example 85, 3-(4-Cyanophenyl)-1-cyclopropyl-N-isopropyl-4-methyl-1H-pyrazole-5-carboxamide] | 139 nM
Cc1c(-c2ccc(C#N)cc2)nn(C2CC2)c1C(=O)NC[C@H](C)O [Example 86, 3-(4-Cyanophenyl)-1-cyclopropyl-N-[(2S)-2-hydroxypropyl]-4-methyl-1H-pyrazole-5-carboxamide] | > 137 nM
Cc1c(-c2ccc(C#N)cc2)nn(C2CC2)c1C(=O)NC[C@@H](C)O [Example 87, 3-(4-Cyanophenyl)-1-cyclopropyl-N-[(2R)-2-hydroxypropyl]-4-methyl-1H-pyrazole-5-carboxamide] | > 191 nM
CCNC(=O)c1c(C#N)c(-c2ccc(C#N)cc2)nn1C(C)C [Example 89, 4-Cyano-3-(4-cyanophenyl)-N-ethyl-1-isopropyl-1H-pyrazole-5-carboxamide] | 7.75 nM
CC(C)NC(=O)c1c(C#N)c(-c2ccc(C#N)cc2)nn1C(C)C [Example 91, 4-Cyano-3-(4-cyanophenyl)-N,1-diisopropyl-1H-pyrazole-5-carboxamide] | 6.48 nM
CNC(=O)c1c(C#N)c(-c2ccc(C#N)cc2)nn1C(C)C [Example 92, 4-Cyano-3-(4-cyanophenyl)-1-isopropyl-N-methyl-1H-pyrazole-5-carboxamide] | 8.84 nM
CC(C)n1nc(-c2ccc(C#N)cc2)c(C#N)c1C(=O)NC1CC1 [Example 94, 4-Cyano-3-(4-cyanophenyl)-N-cyclopropyl-1-isopropyl-1H-pyrazole-5-carboxamide] | 10.6 nM
CC(C)NC(=O)c1c(Cc2ccccc2)c(-c2ccc(C#N)cc2)nn1C(C)C [Example 95, 4-Benzyl-3-(4-cyanophenyl)-N,1-diisopropyl-1H-pyrazole-5-carboxamide] | 315 nM
CC(C)n1nc(-c2ccc(C#N)cc2)c(Cc2ccccc2)c1C(=O)NC1CC1 [Example 96, 4-Benzyl-3-(4-cyanophenyl)-N-cyclopropyl-1-isopropyl-1H-pyrazole-5-carboxamide] | 374 nM
CCNC(=O)c1c(Cc2ccccc2)c(-c2ccc(C#N)cc2)nn1C(C)C [Example 97, 4-Benzyl-3-(4-cyanophenyl)-N-ethyl-1-isopropyl-1H-pyrazole-5-carboxamide] | 399 nM
CC(C)n1nc(-c2ccc(C#N)cc2)c(C2CC(F)(F)C2)c1C(=O)NC1CC1 [Example 98, 3-(4-Cyanophenyl)-N-cyclopropyl-4-(3,3-difluorocyclobutyl)-1-isopropyl-1H-pyrazole-5-carboxamide] | 208 nM
CNC(=O)c1c(C2CC(F)(F)C2)c(-c2ccc(C#N)cc2)nn1C(C)C [Example 99, 3-(4-Cyanophenyl)-4-(3,3-difluorocyclobutyl)-1-isopropyl-N-methyl-1H-pyrazole-5-carboxamide] | 52.5 nM
CCNC(=O)c1c(C2CC(F)(F)C2)c(-c2ccc(C#N)cc2)nn1C(C)C [Example 100, 3-(4-Cyanophenyl)-4-(3,3-difluorocyclobutyl)-N-ethyl-1-isopropyl-1H-pyrazole-5-carboxamide] | 151 nM
CCc1c(-c2ccc(C#N)cc2)nn(C(C)CC)c1C(=O)NC[C@H](C)O (stereo partly drawn) [Example 108, 1-sec-Butyl-3-(4-cyanophenyl)-4-ethyl-N-[(2S)-2-hydroxypropyl]-1H-pyrazole-5-carboxamide] | 91.4 nM
CCc1c(-c2ccc(C#N)cc2)nn(C(C)C)c1C(=O)NCC1CC1 [Example 110, 3-(4-Cyanophenyl)-N-(cyclopropylmethyl)-4-ethyl-1-isopropyl-1H-pyrazole-5-carboxamide] | 8.24 nM
CCc1c(-c2ccc(C#N)cc2)nn(C(C)C)c1C(=O)NC1CC1 [Example 111, 3-(4-Cyanophenyl)-N-cyclopropyl-4-ethyl-1-isopropyl-1H-pyrazole-5-carboxamide] | 23.1 nM
CCc1c(-c2ccc(C#N)cc2)nn(C(C)C)c1C(=O)NC [Example 112, 3-(4-Cyanophenyl)-4-ethyl-1-isopropyl-N-methyl-1H-pyrazole-5-carboxamide] | 26 nM
CNC(=O)CNC(=O)c1c(C)c(-c2ccc(C#N)c(C)c2)nn1C(C)C [Example 113, 3-(4-Cyano-3-methylphenyl)-1-isopropyl-4-methyl-N-[2-(methylamino)-2-oxoethyl]-1H-pyrazole-5-carboxamide] | 27.1 nM
CCc1c(-c2ccc(C#N)cc2)nn(C(C)C)c1C(=O)NC[C@H](C)O [Example 114, 3-(4-Cyanophenyl)-4-ethyl-N-[(2S)-2-hydroxypropyl]-1-isopropyl-1H-pyrazole-5-carboxamide] | 30.9 nM

Compound | Ki
CCc1c(-c2ccc(C#N)cc2)nn(C(C)C)c1C(=O)NC[C@@H](C)O [Example 115, 3-(4-Cyanophenyl)-4-ethyl-N-[(2R)-2-hydroxypropyl]-1-isopropyl-1H-pyrazole-5-carboxamide] | 85 nM
CCNC(=O)c1c(CC)c(-c2ccc(C#N)cc2)nn1C(C)C [Example 116, 3-(4-Cyanophenyl)-N,4-diethyl-1-isopropyl-1H-pyrazole-5-carboxamide] | 32.1 nM
CCc1c(-c2ccc(C#N)cc2)nn(C(C)C)c1C(=O)NC(C)C [Example 117, 3-(4-Cyanophenyl)-4-ethyl-N,1-diisopropyl-1H-pyrazole-5-carboxamide] | 36.4 nM
CCc1c(-c2ccc(C#N)cc2)nn(C(C)C)c1C(=O)NCC(C)(C)O [Example 118, 3-(4-Cyanophenyl)-4-ethyl-N-(2-hydroxy-2-methylpropyl)-1-isopropyl-1H-pyrazole-5-carboxamide] | 54.8 nM
CCc1c(-c2ccc(C#N)cc2)nn(C(C)C)c1C(=O)NCC(=O)NC [Example 119, 3-(4-Cyanophenyl)-4-ethyl-1-isopropyl-N-[2-(methylamino)-2-oxoethyl]-1H-pyrazole-5-carboxamide] | > 145 nM
CNC(=O)CNC(=O)c1c(C2CC2)c(-c2ccc(C#N)c(C)c2)nn1C(C)C [Example 120, 3-(4-Cyano-3-methylphenyl)-4-cyclopropyl-1-isopropyl-N-[2-(methylamino)-2-oxoethyl]-1H-pyrazole-5-carboxamide] | 8.66 nM
Cc1cc(-c2nn(C(C)C)c(C(=O)NC3CC3)c2C#N)ccc1C#N [Example 121] | 5.06 nM
CNC(=O)c1c(C#N)c(-c2ccc(C#N)c(C)c2)nn1C(C)C [Example 122] | 5.18 nM
Cc1cc(-c2nn(C(C)C)c(C(=O)NC(C)C)c2C#N)ccc1C#N [Example 123] | 5.49 nM
Cc1cc(-c2nn(C(C)C)c(C(=O)NC[C@H](C)O)c2C#N)ccc1C#N [Example 124] | 5.93 nM
CC(C)n1nc(-c2ccc(C#N)cc2)c(C2CC2)c1C(=O)NC1CCS(=O)(=O)C1 (stereo not shown) [Example 125] | 8.28 nM
Cc1cc(-c2nn(C(C)C)c(C(=O)NCC(C)(C)O)c2C#N)ccc1C#N [Example 126] | 10.2 nM
Cc1c(-c2ccc(C#N)cc2)nn(C2CCOC2)c1C(=O)NCC1CC1 (stereo not shown) [Example 127] | 11.3 nM
Cc1cc(-c2nn(C(C)C)c(C(=O)NC[C@@H](C)O)c2C#N)ccc1C#N [Example 128] | 11.9 nM
CC(C)n1nc(-c2ccc(C#N)cc2)c(Cl)c1C(=O)NC[C@H](C)O [Example 129] | 13.2 nM
CCc1c(-c2ccc(C#N)cc2)nn(C(C)CC)c1C(=O)NCC(C)(C)O (stereo not shown) [Example 130] | 14.8 nM
CC(C)n1nc(-c2ccc(C#N)cc2)c(Cl)c1C(=O)NC1CC1 [Example 132] | 17.8 nM
CC(C)n1nc(-c2ccc(C#N)cc2)c(C#N)c1C(=O)NC[C@@H](C)O [Example 133] | 19.3 nM
CC(C)n1nc(-c2ccc(C#N)cc2)c(C#N)c1C(=O)NCC(C)(C)O [Example 134] | 21.9 nM
